# Data published in patent US20130196986A1 (priority 2010, published 2013).
# Target: T1, P2X7 receptor (Homo sapiens, UniProt Q99572)
# T1 construct: stably expressing the full length P2X7 receptor; expressed in transfected cells
# T1 sequence (Q99572 1-595): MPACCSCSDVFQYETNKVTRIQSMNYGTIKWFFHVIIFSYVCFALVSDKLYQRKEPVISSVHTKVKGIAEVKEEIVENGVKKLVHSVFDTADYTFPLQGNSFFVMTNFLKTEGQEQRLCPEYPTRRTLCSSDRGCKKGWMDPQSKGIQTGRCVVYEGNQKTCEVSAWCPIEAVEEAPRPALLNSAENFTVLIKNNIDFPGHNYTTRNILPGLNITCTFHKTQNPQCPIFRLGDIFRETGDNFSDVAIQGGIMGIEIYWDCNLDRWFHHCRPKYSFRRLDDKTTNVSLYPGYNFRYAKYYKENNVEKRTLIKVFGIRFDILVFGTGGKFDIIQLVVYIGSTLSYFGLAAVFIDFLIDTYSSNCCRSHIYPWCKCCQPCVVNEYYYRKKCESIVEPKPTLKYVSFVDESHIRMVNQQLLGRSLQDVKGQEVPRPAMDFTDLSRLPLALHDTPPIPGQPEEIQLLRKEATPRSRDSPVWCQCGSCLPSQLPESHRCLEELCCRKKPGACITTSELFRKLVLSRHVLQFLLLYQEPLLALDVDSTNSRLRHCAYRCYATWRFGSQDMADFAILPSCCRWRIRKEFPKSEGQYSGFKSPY
# Test: Ca++ flux assay (FLIPR) in P2X7-HEK-293 cell line stably expressing the full length P2X7 receptor, Bz-ATP activation
# Type: cell-based
# Details: P2X7-HEK-293 cells; agonist Bz-ATP; fluorescence as total area over 90 seconds; read-out: P2X7 Ca Flux hu IC50
# Summary of the method: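 HEK-293 cells stably expressing full-length P2X7 were loaded with Ca++-sensitive dye for 1 h, with compound added during loading. Cells were stimulated with Bz-ATP on FLIPR. Fluorescence was integrated as total area over 90 s, and IC50 was taken as 50% inhibition of the maximal Ca++ response.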
row,IC50,SMILES
1,446 nM,"Cc1c(Cl)cccc1-n1ccn2c(SCc3cccc(Br)c3)nnc2c1=O [Compound 86, 3-(3-bromobenzylthio)-7-(3-chloro-2-methylphenyl)-[1,2,4]triazolo[4,3-a]pyrazin-8(7H)-one]"
2,434 nM,"Cc1c(Cl)cccc1-n1ccn2c(SCc3ccccc3C#N)nnc2c1=O [Compound 87, 2((7-(3-chloro-2-methylphenyl)-8-oxo-7,8-dihydro-[1,2,4]triazolo[4,3-a]pyrazin-3-ylthio)methyl)benzonitrile]"
3,8370 nM,"Cc1c(Cl)cccc1-n1ccn2c(SCc3cc(C(F)(F)F)cc(C(F)(F)F)c3)nnc2c1=O [Compound 88, 3-(3,5-bis(trifluoromethyl)benzylthio)-7-(3-chloro-2-methylphenyl)-[1,2,4]triazolo[4,3-a]pyrazin-8(7H)-one]"
4,581 nM,"Cc1c(Cl)cccc1-n1ccn2c(SCc3cccc(C(F)(F)F)c3)nnc2c1=O [Compound 89, 7-(3-chloro-2-methylphenyl)-3-(3-(trifluoromethyl)benzylthio)-[1,2,4]triazolo[4,3-a]pyrazin-8(7H)-one]"
5,643 nM,"COC(=O)c1ccccc1CSc1nnc2c(=O)n(-c3cccc(Cl)c3C)ccn12 [Compound 90, methyl 2-((7-(3-chloro-2-methylphenyl)-8-oxo-7,8-dihydro-[1,2,4]triazolo[4,3-a]pyrazin-3-ylthio)methyl)benzoate]"
6,3250 nM,"COC(=O)c1cccc(CSc2nnc3c(=O)n(-c4cccc(Cl)c4C)ccn23)c1 [Compound 91, methyl 3-((7-(3-chloro-2-methylphenyl)-8-oxo-7,8-dihydro-[1,2,4]triazolo[4,3-a]pyrazin-3-ylthio)methyl)benzoate]"
7,209 nM,"Cc1cccc(-n2ccn3c(SCc4ccccc4)nnc3c2=O)c1C [Compound 92, 3-(benzylthio)-7-(2,3-dimethylphenyl)-[1,2,4]triazolo[4,3-a]pyrazin-8(7H)-one]"
8,38.2 nM,"Cc1c(-n2ccn3c(SCc4ccccc4)nnc3c2=O)cccc1C(F)(F)F [Compound 93, 3-(benzylthio)-7-(2-methyl-3-(trifluoromethyl)phenyl)-[1,2,4]triazolo[4,3-a]pyrazin-8(7H)-one]"
9,2560 nM,"Cc1nc(CSc2nnc3c(=O)n(-c4cccc(Cl)c4C)ccn23)cs1 [Compound 94, 7-(3-chloro-2-methylphenyl)-3((2-methylthiazol-4-yl)methylthio)-[1,2,4]triazolo[4,3-a]pyrazin-8(7H)-one]"
10,110 nM,"O=c1c2nnc(SCc3ccccc3)n2ccn1-c1cccc(Cl)c1Cl [Compound 95, 3-(benzylthio)-7-(2,3-dichlorophenyl)-[1,2,4]triazolo[4,3-a]pyrazin-8(7H)-one]"
11,4220 nM,"Cc1c(Cl)cccc1-n1ccn2c(SCc3cccnc3)nnc2c1=O [Compound 96, 7-(3-chloro-2-methylphenyl)-3-(pyridin-3-ylmethylthio)-[1,2,4]triazolo[4,3-a]pyrazin-8(7H)-one]"
12,2310 nM,"Cc1c(Cl)cccc1-n1ccn2c(SCc3ccc4ccccc4c3)nnc2c1=O [Compound 97, 7-(3-chloro-2-methylphenyl)-3-(naphthalen-2-ylmethylthio)-[1,2,4]triazolo[4,3-a]pyrazin-8(7H)-one]"
13,2340 nM,"Cc1c(Cl)cccc1-n1ccn2c(SCc3ccccn3)nnc2c1=O [Compound 98, 7-(3-chloro-2-methylphenyl)-3-(pyridin-2-ylmethylthio)-[1,2,4]thazolo[4,3-a]pyrazin-8(7H)-one]"
14,250 nM,"Cc1c(Br)cccc1-n1ccn2c(SCc3ccccc3)nnc2c1=O [Compound 99, 3-(benzylthio)-7-(3-bromo-2-methylphenyl)-[1,2,4]-triazolo[4,3-a]pyrazin-8(7H)-one]"
15,3920 nM,"O=c1c2nnc(SCc3ccccc3)n2ccn1-c1ccc(Cl)c(Cl)c1 [Compound 100, 3-(benzylthio)-7-(3,4-dichlorophenyl)-[1,2,4]triazolo[4,3-a]pyrazin-8(7H)-one]"
16,167 nM,"Cc1c(Cl)cccc1-n1ccn2c(SCc3cc(Cl)cc(Cl)c3)nnc2c1=O [Compound 101, 7-(3-chloro-2-methylphenyl)-3-(3,5-dichlorobenzylthio)-[1,2,4]triazolo[4,3-a]pyrazin-8(7H)-one]"
17,925 nM,"Cc1c(Cl)cccc1-n1ccn2c(SCc3cc(F)c(F)c(F)c3)nnc2c1=O [Compound 102, 7-(3-chloro-2-methylphenyl)-3-(3,4,5-trifluorobenzylthio)-[1,2,4]triazolo[4,3-a]pyrazin-8(7H)-one]"

row,IC50,SMILES
1,1300 nM,"Cc1c(Cl)cccc1-n1ccn2c(SCc3ccc(Cl)c(Cl)c3)nnc2c1=O [Compound 103, 7-(3-chloro-2-methylphenyl)-3-(3,4-dichlorobenzylthio)-[1,2,4]triazolo[4,3-a]pyrazin-8(7H)-one]"
2,2740 nM,"Cc1c(Cl)cccc1-n1ccn2c(SCc3ccc(C(C)C)cc3)nnc2c1=O [Compound 104, 7-(3-chloro-2-methylphenyl)-3-(4-isopropylbenzylthio)-[1,2,4]triazolo[4,3-a]pyrazin-8(7H)-one]"
3,389 nM,"Cc1c(Cl)cccc1-n1ccn2c(SCc3c(F)cccc3F)nnc2c1=O [Compound 105, 7-(3-chloro-2-methylphenyl)-3-(2,6-difluorobenzylthio)-[1,2,4]triazolo[4,3-a]pyrazin-8(7H)-one]"
4,387 nM,"Cc1c(Cl)cccc1-n1ccn2c(SCc3c(F)c(F)c(F)c(F)c3F)nnc2c1=O [Compound 106, 7-(3-chloro-2-methylphenyl)-3-(perfluorobenzylthio)-[1,2,4]triazolo[4,3-a]pyrazin-8(7H)-one]"
5,1820 nM,"Cc1c(Cl)cccc1-n1ccn2c(SCC(=O)OC(C)(C)C)nnc2c1=O [Compound 107, tert-butyl 2-(7-(3-chloro-2-methylphenyl)-8-oxo-7,8-dihydro-[1,2,4]triazolo[4,3-a]pyrazin-3-ylthio)acetate]"
6,507 nM,"COc1ccccc1C(=O)CSc1nnc2c(=O)n(-c3cccc(Cl)c3C)ccn12 [Compound 108, 7-(3-chloro-2-methylphenyl)-3-(2-(2-methoxyphenyl)-2-oxoethylthio)-[1,2,4]triazolo[4,3-a]pyrazin-8(7H)-one]"
7,448 nM,"Cc1c(Cl)cccc1-n1ccn2c(SCC(=O)c3ccccc3C(F)(F)F)nnc2c1=O [Compound 109, 7-(3-chloro-2-methylphenyl)-3-(2-oxo-2-(2-(trifluoromethyl)phenyl)ethylthio)-[1,2,4]-triazolo[4,3-a]pyrazin-8(7H)-one]"
8,544 nM,"COc1ccccc1CSc1nnc2c(=O)n(-c3cccc(Cl)c3C)ccn12 [Compound 110, 7-(3-chloro-2-methylphenyl)-3-(2-methoxybenzylthio)-[1,2,4]triazolo[4,3-a]pyrazin-8(7H)-one]"
9,515 nM,"Cc1c(Cl)cccc1-n1ccn2c(SCc3ccccc3C(F)(F)F)nnc2c1=O [Compound 111, 7-(3-chloro-2-methylphenyl)-3-(2-(trifluoromethyl)benzylthio)-[1,2,4]triazolo[4,3-a]pyrazin-8(7H)-one]"
10,660 nM,"Cc1c(Cl)cccc1-n1ccn2c(SCCc3ccccc3)nnc2c1=O [Compound 112, 7-(3-chloro-2-methylphenyl)-3-(phenethylthio)-[1,2,4]triazolo[4,3-a]pyrazin-8(7H)-one]"
11,5650 nM,"COc1ccc(CSc2nnc3c(=O)n(-c4cccc(Cl)c4C)ccn23)cc1 [Compound 113, 7-(3-chloro-2-methylphenyl)-3-(4-methoxybenzylthio)-[1,2,4]triazolo[4,3-a]pyrazin-8(7H)-one]"
12,697 nM,"Cc1c(Cl)cccc1-n1ccn2c(SCc3cc(F)cc(F)c3)nnc2c1=O [Compound 114, 7-(3-chloro-2-methylphenyl)-3-(3,5-difluorobenzylthio)-[1,2,4]triazolo[4,3-a]pyrazin-8(7H)-one]"
13,893 nM,"Cc1c(Cl)cccc1-n1ccn2c(SCc3ccc(F)c(F)c3)nnc2c1=O [Compound 115, 7-(3-chloro-2-methylphenyl)-3-(3,4-difluorobenzylthio)-[1,2,4]triazolo[4,3-a]pyrazin-8(7H)-one]"
14,29 nM,Cc1c(-n2ccn3c(S(=O)(=O)Cc4ccccc4)nnc3c2=O)cccc1C(F)(F)F [Compound 116]
15,76.5 nM,"Cc1c(-n2ccn3c([S+]([O-])Cc4ccccc4)nnc3c2=O)cccc1C(F)(F)F (stereo not shown) [Compound 117, 3-(benzylsulfinyl)-7-(2-methyl-3-(trifluoromethyl)phenyl)-[1,2,4]triazolo[4,3-a]pyrazin-8(7H)-one]"
16,6.9 nM,"Cc1c(-n2ccn3c(S(=O)(=O)Cc4ccccc4-c4ccc(Cl)cc4)nnc3c2=O)cccc1C(F)(F)F [Compound 118, 3-((4′-chlorobiphenyl-2-yl)methylsulfonyl)-7-(2-methyl-3-(trifluoromethyl)phenyl)-[1,2,4]triazolo[4,3-a]pyrazin-8(7H)-one]"
17,11 nM,"O=c1c2nnc(S(=O)(=O)Cc3ccccc3Cl)n2ccn1-c1cccc(C(F)(F)F)c1Cl [Compound 119, 7-(2-chloro-3-(trifluoromethyl)phenyl)-3-(2-chlorobenzylsulfonyl)-[1,2,4]triazolo[4,3-a]pyrazin-8(7H)-one]"
